Test results as given in ChEMBL document CHEMBL1201862, “PubChem BioAssay data set” (2004).
The source made the active and inactive calls.

Legend:
[1] = target: Paired box protein Pax-8 (Homo sapiens, UniProt Q06710); test: PAX8 transcriptional activity inhibition in RMG-I – RMG-I cells, luciferase, cherry-pick, dose response (AID 687027); assay type: functional, cell-based;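 note: luciferase reporter driven by Pax8 target thyroperoxidase promoter measured by SteadyGlo luminescence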
[2] = IGROV1 cell killing – plate reader, dry powder samples, PAX8 inhibitor project, dose response (AID 743043); assay type: functional, cell-based; details: IGROV-1
[3] = general mammalian cell viability loss – activator set, cherry-pick, cytotoxicity control for miR-122 modulator project, dose response (AID 720690); assay type: functional, cell-based;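 note: HEK293T human cells scored for general mammalian cytotoxicity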
[4] = activation of miR-122 Renilla sensor silencing – cell-based, Huh7 psiCHECK-miR122, Renilla luciferase, cherry-picked, dose response (AID 651956); assay type: functional;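 note: huh7 hepatoma cells stably carrying a psiCHECK-2 miR-122 sensor plasmid; renilla luciferase signal reporting endogenous miR-122 activity after 48 h compound exposure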
[5] = OVCAR8 cell viability loss – plate reader, dry powder samples, PAX8 project, dose response (AID 743197); assay type: functional, cell-based; details: OVCAR-8
[6] = general mammalian cell viability loss – inhibitor set, cherry-pick, set 2, cytotoxicity control for miR-122 modulator project, dose response (AID 720697); assay type: functional, cell-based
[7] = Late stage assay provider results from the probe development effort to identify inhibitors of the Plasmodium falciparum M17 Leucine Aminopeptidase (M17LAP): radiolabel-based cell-based dose response assay to identify compounds that inhibit P. falciparum growth in RBCs Set 2.; assay type: functional
[8] = CMV-driven luciferase expression suppression in HEK293 – cell-based, luminescence, dry powder, counter-screen for Pax8 inhibitor project, dose response (AID 743020); assay type: functional
[9] = test system: HeLa; test: viability loss in HeLa cells – cell-based, ATP luminescence, cherry-pick samples, cytotoxicity control, dose response (AID 687004); assay type: functional; details: Homo sapiens
[10] = A Cell-Based Confirmatory Screen for Compounds that Inhibit VEEV, TC-83 (8).; assay type: functional
[11] = A Cell-Based Confirmatory Screen for Compounds that Inhibit VEEV, TC-83 (6).; assay type: functional
[12] = target: Metabotropic glutamate receptor 3 (Rattus norvegicus, UniProt P31422); test: inhibition of rat mGlu3 glutamate signaling – HEK/GIRK cells, thallium flux, dose response (AID 651839); assay type: functional
Metabotropic glutamate receptor 3, sequence (P31422 whole entry): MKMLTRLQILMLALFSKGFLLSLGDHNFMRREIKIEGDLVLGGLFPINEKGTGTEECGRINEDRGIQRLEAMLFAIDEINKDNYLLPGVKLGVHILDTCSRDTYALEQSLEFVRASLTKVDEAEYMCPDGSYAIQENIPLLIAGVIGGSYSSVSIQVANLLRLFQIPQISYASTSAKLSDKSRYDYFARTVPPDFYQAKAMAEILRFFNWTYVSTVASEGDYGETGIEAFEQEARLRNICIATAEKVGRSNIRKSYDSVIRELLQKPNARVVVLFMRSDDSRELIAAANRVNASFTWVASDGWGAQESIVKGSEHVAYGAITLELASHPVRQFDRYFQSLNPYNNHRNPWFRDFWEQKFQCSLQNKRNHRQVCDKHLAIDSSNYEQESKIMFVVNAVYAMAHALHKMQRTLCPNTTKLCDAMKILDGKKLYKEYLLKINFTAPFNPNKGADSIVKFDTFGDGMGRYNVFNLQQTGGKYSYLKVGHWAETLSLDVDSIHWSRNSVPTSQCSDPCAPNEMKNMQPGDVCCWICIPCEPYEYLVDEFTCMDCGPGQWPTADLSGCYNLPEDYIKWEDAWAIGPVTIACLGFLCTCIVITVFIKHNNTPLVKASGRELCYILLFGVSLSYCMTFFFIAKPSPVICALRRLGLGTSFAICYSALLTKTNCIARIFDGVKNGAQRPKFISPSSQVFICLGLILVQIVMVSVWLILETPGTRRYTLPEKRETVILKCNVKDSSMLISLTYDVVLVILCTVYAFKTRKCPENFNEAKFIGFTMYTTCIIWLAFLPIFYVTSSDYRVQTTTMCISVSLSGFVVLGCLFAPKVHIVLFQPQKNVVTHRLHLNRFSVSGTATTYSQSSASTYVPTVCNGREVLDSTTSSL

[13] = target: T1, High affinity choline transporter 1 (Homo sapiens, UniProt Q9GZV3); test: inhibition of SLC5A7-mediated choline transport – cell-based, HEK-293 hCHT, [3H]-choline uptake, dose response (AID 652177); assay type: functional
T1 sequence (Q9GZV3 whole entry): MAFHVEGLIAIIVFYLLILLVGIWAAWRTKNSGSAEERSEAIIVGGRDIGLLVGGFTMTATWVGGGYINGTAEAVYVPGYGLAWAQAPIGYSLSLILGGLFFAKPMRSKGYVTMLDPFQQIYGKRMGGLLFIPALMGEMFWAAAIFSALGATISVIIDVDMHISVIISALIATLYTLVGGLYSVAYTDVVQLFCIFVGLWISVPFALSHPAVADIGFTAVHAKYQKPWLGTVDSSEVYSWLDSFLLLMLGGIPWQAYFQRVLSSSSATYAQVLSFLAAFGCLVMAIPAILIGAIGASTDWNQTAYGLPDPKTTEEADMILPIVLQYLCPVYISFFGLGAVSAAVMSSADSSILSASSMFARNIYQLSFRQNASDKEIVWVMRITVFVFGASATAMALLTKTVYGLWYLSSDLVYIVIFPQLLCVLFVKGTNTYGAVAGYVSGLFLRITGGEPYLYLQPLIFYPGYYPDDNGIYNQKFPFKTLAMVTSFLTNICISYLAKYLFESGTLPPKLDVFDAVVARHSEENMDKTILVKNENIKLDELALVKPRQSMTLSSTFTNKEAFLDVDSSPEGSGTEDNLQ

[14] = NIH3T3 cell viability loss – ATP luminescence, mouse fibroblasts, counter-screen, dose response (AID 2010); assay type: functional, cell-based;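 note: cells exposed to compound for about 90 hours before reading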
[15] = Trypanosoma cruzi growth suppression in host cells – NIH3T3 host cells, beta-gal luminescence, confirmation (AID 2044); assay type: functional, cell-based;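 note: intracellular parasites grown in NIH/3T3 mouse fibroblasts as host cells; luminescent beta-galactosidase reporter signal from transgenic T. cruzi replicating inside host cells; inhibitors lower the luminescence signal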
[16] = Counterscreen for activators of the function of SWI/SNF related, matrix associated, actin dependent regulator of chromatin, subfamily a, member 2 (SMARCA2, BRM): Luminescence-based cell-based high throughput dose response assay to identify non-selective compounds using the VP16 reporter assay.; assay type: functional
[17] = HEK-293T viability loss after treatment – luminescence, T-cell screen hits, cytotoxicity control for TCR NF-kB inhibitor project, dose response (AID 489026); assay type: functional, cell-based;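 note: cells exposed to compound about 14 hours before the viability readout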
[18] = cells

Paired box protein Pax-8, sequence (Q06710 whole entry): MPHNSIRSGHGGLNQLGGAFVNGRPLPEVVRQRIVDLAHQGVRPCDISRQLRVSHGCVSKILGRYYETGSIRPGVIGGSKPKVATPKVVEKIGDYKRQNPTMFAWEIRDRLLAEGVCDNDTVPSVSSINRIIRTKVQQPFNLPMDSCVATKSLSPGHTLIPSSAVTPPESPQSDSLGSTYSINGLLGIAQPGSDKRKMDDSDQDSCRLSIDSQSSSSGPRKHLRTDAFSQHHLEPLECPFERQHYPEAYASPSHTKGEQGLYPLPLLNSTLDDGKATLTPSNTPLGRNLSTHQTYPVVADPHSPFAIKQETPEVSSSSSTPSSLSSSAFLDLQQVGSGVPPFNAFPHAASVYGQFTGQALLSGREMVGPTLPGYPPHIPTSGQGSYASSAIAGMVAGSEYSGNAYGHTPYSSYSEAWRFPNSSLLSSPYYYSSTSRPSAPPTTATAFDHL

With `COc1ccc(CN(C)C[C@H]2OCCCC[C@H](C)Oc3ccc(NC(=O)Nc4ccc(C(F)(F)F)cc4)cc3C(=O)N([C@@H](C)CO)C[C@@H]2C)cc1` the AC50 [1] was 8.38 µM (active), the AC50 [2] was 53.8 µM (active) and the AC50 [3] was 18.3 µM (active). For the same molecule, the AC50 [4] was 6.4 µM (active), the AC50 [5] was > 70 µM (inactive) and the AC50 [6] was 11.3 µM (active).

With `CCCCOc1ccc(C(=O)NO)cc1` the IC50 [7] was 11.3 µM (inactive).

In the case of `C[C@H](CO)N1C[C@H](C)[C@@H](CN(C)C(=O)Nc2cccc3ccccc23)OCCCC[C@H](C)Oc2ccc(NC(=O)c3ccncc3)cc2C1=O`, the AC50 [1] is reported as 3.61 µM (active) and the AC50 [8] is reported as 49.1 µM (active).

With `CNC(=O)C[C@H]1CC[C@H]2[C@@H](COc3ccc(NC(=O)Nc4cccc(C#N)c4)cc3C(=O)N2C)O1` the AC50 [9] was 27.2 µM (active).

In the case of `COc1ccc(-n2c(CN3CCNCC3)nc3ccc([N+](=O)[O-])cc3c2=O)cc1`, the IC50 [10] is reported as < 218 nM (active) and the IC50 [11] is reported as < 220 nM (active).

In the case of `COc1ccc(COc2ccc(C(=O)N3CCC[C@@H](CO)C3)cc2)cc1`, the IC50 [12] is reported as 6.84 µM (active).

For `COc1ccc(C(=O)NCc2cc(C(C)C)no2)cc1OC1CCCN(C)C1` (centres undefined), the IC50 [13] was 1.25 µM (active).

For `Nc1nc(O)c2[nH]nnc2n1` [8-AZAGUANINE], the EC50 [14] was 10.3 µM (active), the EC50 [15] was < 100 nM (active) and the EC50 [16] was > 91.2 µM (inactive). For the same molecule, the IC50 [17] was > 80 µM (inactive) and the EC50 [18] was 153 nM (active).
